For one data set, the target named is T1, hMAO-A (Homo sapiens, UniProt P21397).
T1 sequence (P21397 1-527): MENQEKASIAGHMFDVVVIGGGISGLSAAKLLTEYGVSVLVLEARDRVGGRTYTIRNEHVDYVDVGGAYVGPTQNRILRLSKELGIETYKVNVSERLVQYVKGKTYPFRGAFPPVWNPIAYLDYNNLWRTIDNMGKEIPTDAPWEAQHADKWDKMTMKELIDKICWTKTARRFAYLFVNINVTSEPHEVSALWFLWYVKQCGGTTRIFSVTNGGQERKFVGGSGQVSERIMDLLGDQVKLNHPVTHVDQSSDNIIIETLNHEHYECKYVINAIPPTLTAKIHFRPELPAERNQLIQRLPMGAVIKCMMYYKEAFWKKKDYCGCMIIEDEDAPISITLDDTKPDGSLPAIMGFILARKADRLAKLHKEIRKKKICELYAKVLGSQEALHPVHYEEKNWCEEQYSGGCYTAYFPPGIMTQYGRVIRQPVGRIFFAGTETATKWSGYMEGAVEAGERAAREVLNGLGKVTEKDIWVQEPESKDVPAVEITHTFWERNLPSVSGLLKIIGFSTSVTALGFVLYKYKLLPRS
Particulars: read-out: IC50 hMAO-A; cited from earlier work.

Another data set has as its target T2, hMAO-B (Homo sapiens, UniProt P27338).
T2 sequence (P27338 1-520): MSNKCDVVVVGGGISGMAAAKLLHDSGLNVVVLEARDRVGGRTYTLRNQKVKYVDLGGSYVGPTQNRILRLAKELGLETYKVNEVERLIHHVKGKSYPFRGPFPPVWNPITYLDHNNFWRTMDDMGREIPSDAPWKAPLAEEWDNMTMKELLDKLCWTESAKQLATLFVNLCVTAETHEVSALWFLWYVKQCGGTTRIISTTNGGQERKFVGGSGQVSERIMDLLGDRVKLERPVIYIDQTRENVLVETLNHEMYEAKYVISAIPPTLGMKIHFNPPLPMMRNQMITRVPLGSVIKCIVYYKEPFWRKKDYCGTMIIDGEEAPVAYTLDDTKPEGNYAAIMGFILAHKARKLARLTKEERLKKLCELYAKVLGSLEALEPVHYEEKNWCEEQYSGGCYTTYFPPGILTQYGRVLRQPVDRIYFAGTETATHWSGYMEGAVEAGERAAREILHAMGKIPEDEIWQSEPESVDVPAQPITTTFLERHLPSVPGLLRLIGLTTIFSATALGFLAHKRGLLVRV
Particulars: read-out: IC50 hMAO-B; cited from earlier work.

The nature of data set [1]: Phase 1 study of compound (2) with ethanol: pharmacokinetics of compound (1) and breath alcohol. The text has this:
Plasma concentrations of compound (1) and BrAC were summarized and listed by treatment, subject and timepoint. Pharmacokinetic parameters derived for compound (1) were also summarized and listed by treatment and subject. Pharmacokinetic parameters were estimated using a non-compartmental approach with a log-linear terminal phase assumption. The trapezoidal rule was used to estimate the area under the curve (linear trapezoidal linear interpolation) and the terminal phase will be estimated by maximizing the coefficient of determination estimated from the log-linear regression model. However, AUC0-∞, AUClast/∞, λz and t1/2 parameters were to be estimated for individual concentration-time profiles only when the terminal log-linear phase could be reliably characterized.
Proportionality analysis was done using a power model. The power model was defined as: […]
A linear model with ln-transformed dose as a continuous effect was fitted. A point estimate and a 90% CI was derived for the slope (β). The parameter could be considered to be dose proportional if the 90% confidence interval of the slope β was within [1+ln(0.8)/ln(r), 1+ln(1.25)/ln(r)], where r=the highest dose studied/the lowest dose (Smith et al., “Confidence interval criteria for assessment of dose proportionality.” Pharm Res. 17 (10):1278-83 (2000)).

The subject of data set [2] is alcohol-consuming patient population. The settings on record: 500 mg/day DSF; cited from earlier work.

What is called IC50 is the concentration at which inhibition is half-maximal. As usually defined, the Tmax is the time from dosing to the highest level. By half-life is commonly meant how long it takes for the measured level to halve. A lower half-life goes with fast loss.

In the case of `COCCOc1cc(Cl)c(C(=O)NCc2ccc(-c3cc[nH]c(=O)c3)cc2)c(Cl)c1` [(3), 2,6-dichloro-4-(2-methoxyethoxy)-N-(4-(2-oxo-1,2-dihydropyridin-4-yl)benzyl)benzamide], the IC50 on hMAO-A and at hMAO-B was more than 130 µM in each case.
Take `O=C(NCc1ccc(-c2cc[nH]c(=O)c2)cc1)c1cccc(F)c1Cl` [(4), 2-chloro-3-fluoro-N-(4-(2-oxo-1,2-dihydropyridin-4-yl)benzyl)benzamide]: the IC50 on hMAO-A and at hMAO-B was more than 130 µM throughout.
On to `Cc1cccc(Cl)c1C(=O)NCc1ccc(-c2cc[nH]c(=O)c2)cc1` [(5), 2-chloro-6-methyl-N-(4-(2-oxo-1,2-dihydropyridin-4-yl)benzyl)benzamide], for which the IC50 at hMAO-A and on hMAO-B was more than 130 µM each time.
With `Cc1cccc(C)c1C(=O)NCc1ccc(-c2cc[nH]c(=O)c2)cc1` [(6), 2,6-dimethyl-N-(4-(2-oxo-1,2-dihydropyridin-4-yl)benzyl)benzamide], the half-maximal inhibitory concentration (IC50) at hMAO-A and on hMAO-B was more than 130 µM throughout.
As for `Cc1cc(-c2ccc(CNC(=O)c3c(Cl)cccc3Cl)cc2)cc(=O)[nH]1` [(7), 2,6-dichloro-N-[4-(6-methyl-2-oxo-1,2-dihydro-pyridin-4-yl)-benzyl]-benzamide], the IC50 at hMAO-A and at hMAO-B was more than 130 µM each time.
`O=C(NCc1ccc(-c2cc[nH]c(=O)c2)cc1)c1c(F)ccc(F)c1Cl` [(8), 2-chloro-3,6-difluoro-N-(4-(2-oxo-1,2-dihydropyridin-4-yl)benzyl)benzamide]: the IC50 at hMAO-A and on hMAO-B was more than 130 µM each time.
With `Cc1cc(CNC(=O)c2c(Cl)cccc2Cl)ccc1-c1cc[nH]c(=O)c1` [(9), 2,6-dichloro-N-(3-methyl-4-(2-oxo-1,2-dihydropyridin-4-yl)benzyl)benzamide], the IC50 at hMAO-A and on hMAO-B was more than 130 µM in each case.
For `Cn1ccc(-c2ccc(CNC(=O)c3c(Cl)cccc3Cl)cc2)cc1=O` [(10), 2,6-dichloro-N-(4-(1-methyl-2-oxo-1,2-dihydropyridin-4-yl)benzyl)benzamide], the IC50 at hMAO-A and on hMAO-B was more than 130 µM throughout.
For the molecule `O=C(NCc1ccc(-c2cc[nH]c(=O)c2)cc1)c1c(F)cccc1F` [(11), 2,6-difluoro-N-(4-(2-oxo-1,2-dihydropyridin-4-yl)benzyl)benzamide], the IC50 on hMAO-A and at hMAO-B was more than 130 µM each time.
Take `O=C(NCc1ccc(-c2cc[nH]c(=O)c2)cc1)c1c(F)cccc1Cl` [(12), 2-chloro-6-fluoro-N-(4-(2-oxo-1,2-dihydropyridin-4-yl)benzyl)benzamide]: the IC50 at hMAO-A and on hMAO-B was more than 130 µM in each case.
Regarding `O=C(NCc1ccc(-c2cc[nH]c(=O)c2)cc1F)c1c(Cl)cccc1Cl` [(13), 2,6-dichloro-N-(2-fluoro-4-(2-oxo-1,2-dihydropyridin-4-yl)benzyl)benzamide], the IC50 on hMAO-A and on hMAO-B was more than 130 µM throughout.
Consider `O=C(NCc1ccc(-c2cc(=O)[nH]cc2F)cc1)c1c(Cl)cccc1Cl` [(14), 2,6-dichloro-N-(4-(5-fluoro-2-oxo-1,2-dihydropyridin-4-yl)benzyl)benzamide], for which the IC50 on hMAO-A and at hMAO-B was more than 130 µM throughout.
As to `O=C(NCc1ccc(-c2cc[nH]c(=O)c2)cc1)c1c(Cl)cccc1Cl` [Compound (1), 2,6-dichloro-N-[4-(2-oxo-1,2-dihydro-pyridin-4-yl)-benzyl]-benzamide], the “dose proportionality of peak and overall exposure (power model)” value in data set [1] (25 mg to 600 mg dose range) is “did not increase in a compound (2) dose-proportional manner”. The “peak (Cmax) and overall (AUC) exposure to compound (1)” value in data set [1] (following a moderate-fat meal) was “increased with increasing dose of compound (2)”. In addition, the Tmax in data set [1] (male, human, plasma, po) fell in the range of 3.5 to 5 h. In data set [1] (male, human, plasma, po), this molecule registered a half-life of 17 to 27 h. Also, the IC50 at hMAO-A and at hMAO-B was more than 130 µM each time.
In the case of `CCN(CC)C(=S)SSC(=S)N(CC)CC` [DSF, Disulfuram], in data set [2], the “outcome of safety study” value is “halted prematurely due to severity of DER”.
